{"source": "patent US9834514B2", "about": "“Antibiotic sensitivity-restoring and photosensitive agents” (New Mexico Tech Research Foundation, priority 2015, dated 2017)", "key": {"efflux pumps of MRSA": {"tested_on": "efflux pumps of MRSA", "test": "Fluorescent competition assay of compound 1 versus INF-55 and reserpine", "format": "binding", "conditions": "compound 1 at 5 μM", "method": "INF-55 and reserpine, NorA EPIs, were used to compete with compound 1 for binding sites on MRSA. Since compound 1 is highly fluorescent, binding could be assessed by measuring the fluorescence at excitation wavelengths of 345 nm, 380 nm, 407 nm, and an emission wavelength of 508 nm. Fluorescent readings were taken every minute for 30 minutes at a lamp energy of 20,000 CW. MRSA cells (about 10^8 CFU/mL) were pelleted at 7500 rpm and resuspended in 1×PBS. The MRSA cells were then pretreated with the appropriate EPI at varying concentrations and incubated for 30 minutes at 37° C. at 150 rpm on a rotary shaker.\nINF-55 (FIG. 2) and reserpine (FIG. 3) were added at 1 μM, 10 μM, 50 μM, and 100 μM. After incubation with the appropriate EPI, compound 1 was added at 5 μM and the samples were incubated for 10 minutes. The samples were then placed in a fluorescent plate reader for analysis. The controls used were as follows: 1×PBS, compound 1 (5 μM) in 1×PBS, each respective concentration of the EPI in 1×PBS, compound 1 (5 μM) added to MRSA cells, and each respective EPI added to MRSA cells. The instrument baseline fluorescence drift was corrected by subtracting the fluorescence measured at each time point for the 1×PBS control sample. The error bars represent data from three independent measurements."}, "[1]": {"tested_on": "S. aureus (ATCC No. 29213)", "test": "Light-activated killing, colony counts", "format": "cell-based", "conditions": "for Dark Toxicity: no light; for Light Toxicity: white light 2 minutes", "method": "(§1) Dose-dependent effects of treating bacteria with compound 1 and irradiation with white light were assessed by treating 10^8 CFU/mL of cells with compound 1, followed by irradiation with white light for 2 minutes. Compound 1 was added at a specific concentration to 1 mL of a 10^8 CFU/mL suspension of the respective bacterial cells, and the cells were incubated at 37° C. for approximately 45 minutes on a rotary shaker at 150 rpm. 0.5 mL of the cell suspension was removed and placed into the wells of a sterile ceramic drop plate, and then the cells were irradiated with white light from a Lumacare™ LC 122A light source for 2 minutes at a distance of approximately 3 cm. The time and distance of the light application delivered about 85 J/cm^2 of 400-700 nm light to the sample. After being irradiated, ten-fold dilutions were made of each cell sample. The dilutions were drip-streaked onto a tryptic soy agar (TSA) plate and incubated at 37° C. for 18-24 hours. Enumeration of bacteria was determined from the dilution, which produced a drip-streak containing approximately 30-300 colonies. After counting the colonies, the CFU/mL was calculated by applying the respective dilution factor and a factor of 100 to account for the 10 μL of sample taken. Appropriate controls were prepared, including cells with no treatment, cells with only compound 1 added, and cells only treated with light.\nThe error bars in FIG. 10 represent the variations between three replicate determinations."}, "VRE (ATCC No. 51299)": {"tested_on": "VRE (ATCC No. 51299)", "test": "Light-activated killing, colony counts", "format": "cell-based, Enterococcus faecalis", "conditions": "for Dark Toxicity: no light; for Light Toxicity: white light 2 minutes", "method": "as §1\nThe error bars in FIG. 11 represent the variations between three replicate determinations."}, "[2]": {"tested_on": "S. mutans (Ward's 85W 2357)", "test": "Light-activated killing, colony counts", "format": "cell-based", "conditions": "for Dark Toxicity: no light; for Light Toxicity: white light 2 minutes", "method": "as §1\nThe error bars in FIG. 13 represent the variations between three replicate determinations."}, "[3]": {"tested_on": "S. pyogenes (ATCC No. 8133)", "test": "MIC against S. pyogenes", "format": "cell-based", "conditions": "Streptococcus pyogenes, ATCC8133; compound alone", "source_text": "The error bars in FIG. 12 represent the variations between three replicate determinations."}, "Trypanosoma cruzi": {"tested_on": "Trypanosoma cruzi", "test": "Light-activated killing of parasites (MTT IC50)", "format": "cell-based", "method": "Trypanosomes were cultured in LIT media+10% FBS. The compounds were added to create a dilution series and incubated with the trypanosomes for 1 hour. The trypanosomes were then irradiated with continuous white light for 2 minutes at a distance of 6.5 cm using a LumaCare™ light source."}, "A. baumannii": {"tested_on": "A. baumannii", "test": "Treatment with compound 1 and PMB at fixed concentrations, with and without white light", "format": "cell-based", "source_text": "FIG. 53 is an example of the treatment of A. baumannii with compound 1 and PMB at fixed concentrations with and without irradiation using white light (λ)."}, "E. coli": {"tested_on": "E. coli", "test": "Resensitization to antibiotics (log reduction, TABLE 29)", "format": "cell-based", "conditions": "compound 1 μM"}, "HeLa cells": {"tested_on": "HeLa cells", "test": "Compound 1 in DMSO versus liposomes on HeLa cells with light (MTT)", "format": "cell-based", "conditions": "1 μM; for Compound 1 pre-incubation to max killing: in the dark", "method": "An effective period of pre-incubation with the drug in the dark was determined to be about 28 hours for compound 1 in DMSO and 60 hours for liposomal delivery of compound 1. The cells were then irradiated with continuous white light for 2 minutes at a distance of 6.5 cm using a LumaCare™ light source. An MTT assay was carried out to evaluate cell viability 48 hours later."}}, "note": "pIC50: −log10 of the molar value. Read-outs that look alike come from different tables or passages of the source.", "data": [{"smiles": "Clc1ccc(/C=C/c2[nH]c3ccccc3c2/C=C/c2ccc(Cl)cc2)cc1", "note": "[Compound 1]", "values": [{"measurement": "competition with INF-55 for binding (fluorescence)", "setting": "efflux pumps of MRSA; INF-55 1-100 μM, FIG. 2", "result": "able to compete with INF-55 for binding to the efflux pumps of MRSA"}, {"measurement": "competition with reserpine for binding (fluorescence)", "setting": "efflux pumps of MRSA; reserpine 1-100 μM, FIG. 3", "result": "able to compete with reserpine for binding to the efflux pumps of MRSA"}, {"measurement": "Dark Toxicity", "setting": "[1]; 0.1 μM", "result": "1.63 × 10^8 ± 1.72 × 10^7 CFU/mL"}, {"measurement": "Light Toxicity", "setting": "[1]; 0.1 μM", "result": "1.20 × 10^5 ± 5.12 × 10^4 CFU/mL"}, {"measurement": "Dark Toxicity", "setting": "[1]; 0.5 μM", "result": "2.67 × 10^6 ± 2.10 × 10^6 CFU/mL"}, {"measurement": "Light Toxicity", "setting": "[1]; 0.5 μM", "result": "1.60 × 10^3 ± 1.44 × 10^3 CFU/mL"}, {"measurement": "Dark Toxicity", "setting": "[1]; 1.0 μM", "result": "1.34 × 10^6 ± 3.04 × 10^5 CFU/mL"}, {"measurement": "Light Toxicity", "setting": "[1]; 1.0 μM", "result": "None detected (<100 CFU/mL)"}, {"measurement": "Dark Toxicity", "setting": "[1]; 5.1 μM", "result": "7.13 × 10^4 ± 1.80 × 10^4 CFU/mL"}, {"measurement": "Light Toxicity", "setting": "[1]; 5.1 μM", "result": "None detected (<100 CFU/mL)"}, {"measurement": "Dark Toxicity", "setting": "VRE (ATCC No. 51299); 0.1 μM", "result": "6.50 × 10^8 ± 5.40 × 10^8 CFU/mL"}, {"measurement": "Light Toxicity", "setting": "VRE (ATCC No. 51299); 0.1 μM", "result": "7.00 × 10^2 ± 8.19 × 10^2 CFU/mL"}, {"measurement": "Dark Toxicity", "setting": "VRE (ATCC No. 51299); 0.5 μM", "result": "6.50 × 10^8 ± 1.32 × 10^8 CFU/mL"}, {"measurement": "Light Toxicity", "setting": "VRE (ATCC No. 51299); 0.5 μM", "result": "2.67 × 10^2 ± 4.62 × 10^2 CFU/mL"}, {"measurement": "Dark Toxicity", "setting": "VRE (ATCC No. 51299); 1.0 μM", "result": "6.20 × 10^8 ± 2.62 × 10^8 CFU/mL"}, {"measurement": "Light Toxicity", "setting": "VRE (ATCC No. 51299); 1.0 μM", "result": "None detected (<100 CFU/mL)"}, {"measurement": "Dark Toxicity", "setting": "VRE (ATCC No. 51299); 5.0 μM", "result": "4.55 × 10^5 ± 8.87 × 10^5 CFU/mL"}, {"measurement": "Light Toxicity", "setting": "VRE (ATCC No. 51299); 5.0 μM", "result": "None detected (<100 CFU/mL)"}, {"measurement": "Dark Toxicity", "setting": "[2]; 0.1 μM", "result": "2.6 × 10^8 ± 5.57 × 10^7 CFU/mL"}, {"measurement": "Light Toxicity", "setting": "[2]; 0.1 μM", "result": "2.35 × 10^5 ± 3.50 × 10^5 CFU/mL"}, {"measurement": "Dark Toxicity", "setting": "[2]; 0.5 μM", "result": "1.44 × 10^8 ± 4.46 × 10^7 CFU/mL"}, {"measurement": "Light Toxicity", "setting": "[2]; 0.5 μM", "result": "2.33 × 10^3 ± 1.54 × 10^3 CFU/mL"}, {"measurement": "Dark Toxicity", "setting": "[2]; 1.0 μM", "result": "2.1 × 10^5 ± 1.13 × 10^5 CFU/mL"}, {"measurement": "Light Toxicity", "setting": "[2]; 1.0 μM", "result": "None Detected (<100 CFU/mL)"}, {"measurement": "Dark Toxicity", "setting": "[2]; 5.0 μM", "result": "5.5 × 10^4 ± 2.48 × 10^4 CFU/mL"}, {"measurement": "Light Toxicity", "setting": "[2]; 5.0 μM", "result": "None Detected (<100 CFU/mL)"}, {"measurement": "MIC", "setting": "[3]", "result": 100, "unit": "µM"}, {"measurement": "pIC50", "setting": "Trypanosoma cruzi; continuous white light 2 minutes, MTT 24 hours later, read-out: Compound + light IC50", "result": "> 6.30"}, {"measurement": "pIC50", "setting": "Trypanosoma cruzi; no light, read-out: IC50", "result": "< 4.00"}, {"measurement": "cell killing with compound 1, PMB and white light", "setting": "A. baumannii; FIG. 53", "result": "PMB was more efficacious in cell killing when co-administered with compound 1 and light"}, {"measurement": "killing by combination of compound 1 and PMB (CFU)", "setting": "A. baumannii; compared to either agent alone, FIG. 16", "result": "effective at killing A. baumannii"}, {"measurement": "Log Reduction", "setting": "E. coli; PMB (0.1 μg/mL)", "result": 4}, {"measurement": "Log Reduction", "setting": "E. coli; PMB (0.1 μg/mL) + Light (2 min)", "result": 7}, {"measurement": "Compound 1 (no light), killing", "setting": "HeLa cells", "result": 6, "unit": "% killing"}, {"measurement": "Compound 1 + light, killing", "setting": "HeLa cells; continuous white light 2 minutes, MTT 48 hours later", "result": 77, "unit": "% killing"}, {"measurement": "Compound 1 pre-incubation to max killing", "setting": "HeLa cells", "result": 28, "unit": "h"}, {"measurement": "Compound 1 pre-incubation to max killing", "setting": "HeLa cells; listed as compound 1", "result": "about 28 hours"}]}]}
